Measurements taken from patent publication US5723494A, “Derivatives of glutamic and aspartic acids, a method of preparing them, and their use as drugs for enhancing memory and learning” (priority 1993, dated 1998).
One block for each compound: values may come before it.

How the values were obtained:
[1] = biological target: excitor amino-acid receptors of cortical membranes ("forebrain") of rats; experiment: Inhibition of the specific binding of [3H]-glutamate to rat forebrain membranes; settings: rat forebrain membranes, 20 min, 37° C., pH 7.1
Excerpt: 6) Studies on binding to rat "forebrain" membranes
L-glutamate recognizes all three receptor subtypes indicated above, al though not selectively. It is therefore desirable to evaluate the capacity of each of the compounds of the invention to interact with the excitor amino-acid receptors of the CNS.
"Forebrain", that is, the cerebral cortex and the hippocampus, were selected as the receptor tissue and ^3 H-L-glutamate as the ligand for marking this heterogenous receptor population.
Rat cerebral tissue (forebrain without striated tissue) was therefore homogeneised cold in tris buffer at pH 7.4. After washing and centrifuging, the final pellet was resuspended in 50 volumes of tris HCl binding buffer at 7.1. 0.5 ml of receptor membrane thus obtained were then incubated, together with the radioactive tracer and the compounds under test, for 20 min at 37° C. The reaction was terminated by separating the bound radio-ligand from the free radio-ligand by filteration on glass-fibre filters which, after washing, were counted in a liquid scintillator (a β-counter) thus determining the radioactivity associated with the pellet. The specific binding was determined as the difference between the binding in the absence and in the presence of cold 3.6 mM L-glutamate.

[2] = Antidepressant activity in the behavioural despair test in the mouse; type: in vivo, mouse (male CD1)
Excerpt: 5) Antidepressant activity in the "behavioural despair test" Another interesting aspect of the pharmacological activity of these products is the potent antidepressant activity which some of them display in an experimental model in the mouse, in which a state of depression is induced experimentally by the method of Porsolt et al. (Arch. Int. Pharmacodyn. 229, p. 327-336 (1977)). Male CDl mice which weighed about 20-25 g and had not fasted were used. The test consisted of inducing a state of depression in the animal which was subjected to forced swimming in a glass cylinder from which it could not escape. After a short period of vigorous activity the mouse adopted a characteristic posture of immobility which was easily identifiable; this immobility is reduced by antidepressant drugs. 1 l glass beakers, filled to 700 ml with water at a temperature of 25° C. were used for the test. The mice, 8 per group, were treated intraperitoneally with the drug under test, 30 minutes before the test. At time 0, each animal was immersed in a beaker and, after one minute during which all moved about swimming vigorously in order to escape, regardless of treatment, the observer, who was unaware of the treatment, assigned the following points: 0=animal immobile 1=minimum movement to remain afloat 2=vigorous swimming The greater the antidepressant activity of the drug, the more the animals will move about in order to try to escape from the water. The points were assigned every 15 sec for a total period of 5 min with a total of 20 observations. The antidepressant activity was determined with the use of various doses of the compound by the regression method as the ED50, that is, the dose in mg/kg of the compound which could antagonise the animal's immobility time by 50%.

[3] = Memory-enhancement activity in the passive avoidance test in the rat; type: in vivo, rat (male Wistar); settings: rat, IP, retest on the 4th day
Procedure: 2) Memory-enhancement activity in the "passive avoidance" test in the rat
A "passive avoidance" model was used, which required a single "step-through" situation and a retest of the "retention memory" 72 h after the training.
Male Wistar rats which weighed about 200 g and had not fasted, were used. The test consisted of evaluating the degree of memory of an animal after it had been trained as follows.
The equipment used was a shuttle box modified thus: one compartment was lined with black card including the cover, and a 60 W lamp was disposed above the other, spaced from the grid floor by about 40 cm. The two compartments were divided by an automatic guillotine-like door. Each animal was placed in the compartment in the light with the guillotine-likedoor open. From this moment, the time taken by the rat to go into the compartment lined with black card (the dark compartment) (the step-throughlatency=STL) was measured. The animals which took more than 30 sec to go into the dark were discarded. Once they had gone into the dark, the door was lowered automatically and a=0.1 mA shock lasting 5 sec (a foot shock=FS) started. After 10 sec, the animal was removed from the shuttle box.
Upon completion, the animals were selected randomly in homogeneous groups and treated with the products.
The retest to determine memory was made after 72 hours. The products were administered chronically in the preselected manner twice per day and the last treatment 30 min before the retest (6 treatments altogether).
The memory-retention test (the retest) consisted of placing each animal, treated 30 min beforehand with a physiological solution or with the product, in the compartment which was not lined with black card for 30 sec.
The results are expressed as the percentage variation of the STL (in seconds) of the groups treated in comparison with the control group by means of this formula: [formula]

[4] = Antiamnesic activity in the mouse (step-down passive avoidance, amnesia induced by ECS); type: in vivo, mouse (CD1 male); settings: mouse; for change in vivo at 0.1 mg/kg: 0.1 mg/kg OS; for change in vivo at 1 mg/kg: 1 mg/kg OS; for change in vivo at 3 mg/kg: 3 mg/kg OS; for change in vivo at 10 mg/kg: 10 mg/kg OS
Excerpt: 1) Antiamnesic activity in the mouse (step-down passive avoidance)
An electroconvulsive shock (ECS) produces retrograde amnesia in the test animal if applied immediately after the training received, for example, a harmful stimulus of a suitable intensity.
The object of the experiment was to study the effects of the compounds of the invention in antagonizing the amnesic effect of an ECS on the short-term memory consolidation process.
CD1 male mice which weighed about 30-35 g, and had not fasted were used. The equipment used was a rectangular plexiglass cage (21×21×40cm) with an electrifiable grid floor and a wooden cube (4×4×4 cm) fixed in the centre of the cage. The animals were treated orally with the product under test 60 minutes before the training.
The mouse was placed delicately on the wooden cube and the time it took to descend to the grid floor (SDL=step-down latency) was measured. When all four of the animal's paws were resting on the floor the continuous 0.2 mA shock started and the time taken by The mouse to remount the wooden cube (EL=escape latency) was measured.
The animals with an SDL of between 3 and 30 sec and with an EL of between 3 and 60 sec were used for retesting.
Immediately afterwards, a transcorneal ECS was applied with the use of the following parameters: amperage 15 mA, frequency 50 Hz, duration of the train of pulses 0.4 sec. duration of each individual pulse 1 msec., interval between pulses 20 msec. As well as the groups treated with ECS, a control group without ECS and a control group with ECS were used.
The retest was carried out after 24 h.
The results are expressed as the percentage variation of the SDL of the treated groups in comparison with the control group by means of this formula: [formula]

[5] = po, retest 24 h after training, read-out: Reversal of the amnesia (% vs controls), as the increase in the Step Down Latency

SMILES: N[C@@H](CCC(=O)O)C(=O)NC1CCCCCCCCC1 [Compound 22]
IC50 [1]: 64 µM

SMILES: CN(C)CCC=C1c2ccccc2CCc2ccccc21 [Amitriptyline, reference compound]
inhibition in vivo at 1 mg/kg ([2]; 5 min, 1 mg/kg IP, 5 minutes, read-out: Decrease in immobility (as %) vs the controls): 19%
inhibition in vivo at 3 mg/kg ([2]; 5 min, 3 mg/kg IP, 5 minutes, read-out: Decrease in immobility (as %) vs the controls): 20%
inhibition in vivo at 10 mg/kg ([2]; 5 min, 10 mg/kg IP, 5 minutes, read-out: Decrease in immobility (as %) vs the controls): 88%
ED50 ([2]; IP, read-out: ED50 (dose antagonising immobility time by 50%)): 4.1 mg/kg

SMILES: N[C@H](CCC(=O)O)C(=O)O [D-glutamic acid, reference compound]
IC50 [1]: 1040 µM

SMILES: NC(=O)CN1CCCC1=O [Piracetam, reference compound]
Activity in increasing the avoidance time (in words) [3]: inactive

SMILES: N[C@@H](CCC(=O)O)C(=O)NC1CC2CCC1C2 (some centres unmarked) [Compound 10]
change in vivo at 0.1 mg/kg [4, 5]: 0%
change in vivo at 1 mg/kg [4, 5]: 26%
change in vivo at 3 mg/kg [4, 5]: 23%
IC50 [1]: 16 µM

SMILES: CCCCCNC(=O)[C@@H](N)CCC(=O)O [Compound 2]
change in vivo at 0.3 mg/kg ([4]; po, 0.3 mg/kg OS, retest 24 h after training, read-out: Reversal of the amnesia (% vs controls), as the increase in the Step Down Latency): 0%
change in vivo at 3 mg/kg [4, 5]: 0%
change in vivo at 30 mg/kg ([4]; po, 30 mg/kg OS, retest 24 h after training, read-out: Reversal of the amnesia (% vs controls), as the increase in the Step Down Latency): 0%
IC50 [1]: 74.6 µM

SMILES: N[C@@H](CCC(=O)O)C(=O)NC1CCCC1 [Compound 18]
IC50 [1]: 21.2 µM

SMILES: CCCCCCNC(=O)[C@@H](N)CCC(=O)O [Compound 3]
IC50 [1]: 70 µM

SMILES: NC(=O)CC[C@H](N)C(=O)O [L-glutamine, reference compound]
Antiamnesic activity (in words) ([4]; OS): inactive
change in vivo at 1 mg/kg [4, 5]: 0%
change in vivo at 10 mg/kg [4, 5]: 10%
change in vivo at 100 mg/kg ([4]; po, 100 mg/kg OS (footnote), retest 24 h after training, read-out: Reversal of the amnesia (% vs controls), as the increase in the Step Down Latency): 12%

SMILES: CCCCCN(CCCCC)C(=O)[C@@H](N)CCC(=O)O [Compound 28]
change in vivo at 0.1 mg/kg [4, 5]: 0%
change in vivo at 1 mg/kg [4, 5]: 0%
change in vivo at 10 mg/kg [4, 5]: 8%

Now from value to compound:

IC50 [1]: 101 µM
SMILES: CC1(C)CCC(NC(=O)C[C@H](N)C(=O)O)CC1 [Compound 50, 1-(4,4-dimethylcyclohexyl)-L-(β)-asparagine]

IC50 [1]: 30 µM
SMILES: N[C@@H](CC(=O)O)C(=O)O [L-aspartic acid, reference compound]

IC50 [1]: 166 µM
SMILES: N[C@@H](CCC(=O)O)C(=O)N1CCCCCCC1 [Compound 34]

IC50 [1]: 970 µM
SMILES: CCCN(CCC)C(=O)[C@@H](N)CCC(=O)O [Compound 27]

IC50 [1]: 38.6 µM
SMILES: CC1(C)CCC(NC(=O)[C@@H](N)CC(=O)O)CC1 [Compound 44]
